The subject of data set [1] is luteinizing hormone (LH). The data set can be described thus: Chronic daily vaginal dosing of DES in gel to suppress LH secretion, ovariectomized sheep without steroids. The settings on record: no steroid. In kind it is in vivo. The procedure:
The objective was to determine if chronic vaginal dosing with 200 μg of deslorelin (“DES”) in gel would be able to suppress secretion of LH. […] doses of DES will result in the down-regulation of the anterior pituitary gland in sheep. Ovariectomized sheep were used for the study, since they secrete high levels of LH in the-absence of ovarian steroids. The sheep were dosed daily with DES in 5 mL of gel, or gel only for 17 days. A single blood sample was collected by jugular venipuncture. Plasma was collected and assayed for LH.

Data set [2] deals with luteinizing hormone (LH). In kind it is in vivo, sheep. The method, then: Ewes (n=12) were treated with progesterone using a vaginal CIDR device. In addition, six sheep received a 15 mm silastic implant of estradiol. Five days later, all sheep were treated vaginally with 200 μg of DES in gel. Blood samples were taken every 30 minutes for 2 hours following treatment and then every 60 minutes for an additional four hours.

Data set [3] has as its system luteinizing hormone (LH). The data set can be described thus: Daily vaginal DES in progesterone-primed ovariectomized ewes: basal LH and pituitary responsiveness. In kind it is in vivo, sheep. The procedure:
The objective of this study was to determine if daily vaginal administration of DES in progesterone-primed ewes would cause a reduction in basal LH secretion and loss of pituitary responsiveness of GnRH. Six ovariectomized ewes were used for the study. Vaginal CIDR devices containing progesterone were inserted. Twenty-four hours later, ewes were dosed daily with 200 μg of DES (GnRH agonist) in 5 mL of gel. Each day, blood samples were collected at 0 and 120 minutes post-treatment. These times were selected in order to evaluate changes in basal secretion of LH (time 0) and the peak LH response following GnRH administration (time 120).

Data set [4] concerns luteinizing hormone (LH). Put plainly: LH release after DES in gel in ewes given systemic depot progesterone and ear implants of synthetic progestogen. In kind it is in vivo, sheep. The method, then:
An attempt was made to treat ewes with progesterone using the systemic administration of a depot form of progesterone and ear implants of a synthetic progestogen. Pituitary release of LH was poor following the vaginal administration of DES in gel. When LH release in these animals was not observed, the gel from the same preparations used vaginally was injected subcutaneously. LH release was then obtained, confirming that the DES/gel preparations contained biologically active material. Given the consistent responses obtained in earlier experiments and those obtained more recently using the CIDR delivery system, it was concluded that the progesterone (generally) should be applied directly to the vagina in order to achieve sufficient local concentrations. Given that luteal phase sheep also respond well, systemic administration of greater amounts of progesterone than used here, in formulations that will maintain consistently high concentrations in the blood, should also work.

Data set [5] concerns luteinizing hormone (LH). Put plainly: CIDR device control study: LH release after vaginal DES. In kind it is in vivo, sheep. The procedure: Another study provided information about the role of the silastic CIDR device itself in the delivery process. The study was based on concern that the CIDR might be damaging the vaginal mucosa, allowing for GnRH transport by a non-selective mechanism. CIDR devices were inserted into six ewes. Five days later, all ewes were treated vaginally with DES. […] After the initial dosing, three ewes were treated with DES and three with gel alone every day for 18 days. At the end of the 18-day treatment period, all ewes were again treated with DES in gel. […] Consequently, by the time the second DES administration was given, the CIDR devices had been in place for approximately 24 days. The ewes therefore were no longer receiving adequate amounts of progesterone locally to maintain the vaginal transport system.

Data set [6] can be described thus: Bioavailability of peptides after vaginal administration to sheep, relative to intravenous injection. The note with it: female, in vivo, sheep. The procedure: (§1) First, a peptide that undergoes receptor-mediated transport across the vaginal epithelium was identified by studying the permeation of peptides of varying molecular weight in a sheep model. Peptides were delivered vaginally to sheep in 5 ml of aqueous or methocel solutions with typical peptide concentrations of 10-40 μg/ml. A group of 18 intact ewes were utilized for these experiments. For each study, sheep were randomly assigned to a treatment group. In GnRH studies where each animal received all possible treatment combinations, each animal was assigned to an initial treatment group at random and subsequently randomly to each of the remaining treatment groups. A minimum of 5 days (typically 10 or more days) was allowed between experiments on a given animal, to provide sufficient time for complete recovery of pituitary responsiveness to the highest doses of the GnRH agonist used A 16G 150 mm jugular catheter (Abbocath-T, Abbott Laboratories, Chicago, Ill.) was inserted and blood samples collected at 0, 30, 60, 90, 120, 180, 240, 360, 480 and 1440 min. after treatment. Luteinizing hormone (LH) levels were determined.
LHRH analog was placed in methyl cellulose solutions (“methocels”) of varying apparent viscosity. […] First, 200 μg of leuprolide acetate in 5 ml of aqueous solutions with melhocel weight concentrations varying between 0% and 3.0% were vaginally administered.
The enhanced bioavailability of LHRH also coincides with a longer-term release into the systemic circulation at the optimal methocel concentrations. […] To test this hypothesis, the efficacy of a second, physically cross-linked hydrogel that was believed would not enhance endocytosis, but whose apparent viscosity (in the range of hydrogel concentrations 0.0-5.5%) was similar to that of the methocels (in the range 0.0-3.0%) was examined.

The next data set concerns serum cortisol. Put plainly: Serum cortisol response to iv injection and vaginal administration of vasopressin. In kind it is in vivo, sheep. The procedure:
FIGS. 1a and 1b are graphs showing serum responses to iv injection and vacinal administration of vasopressin and leuprolide acetate. […] Vasopressin was injected intravenously ([…]) through a jugular catheter. The peptide was delivered vaginally in 5 ml of aqueous solution (200 g does). Standard errors are based on n=6. […] LHRH analog was injected intravenously ([…]) into through a jugular catheter. The peptide was delivered vaginally in 5 ml of aqueous solution (200 g dose). Standard errors are based on n=6.
as §1
To determine whether membrane damage might explain the results shown in FIG. 2, vasopressin was vaginally administered in methocel solutions of 1.5 and 1.75%.

Where two headings read alike, the source gives them in different places.

For the compound `CCNC(=O)[C@@H]1CCCN1C(=O)[C@H](CCCN=C(N)N)NC(=O)[C@H](CC(C)C)NC(=O)[C@@H](Cc1c[nH]c2ccccc12)NC(=O)[C@H](Cc1ccc(O)cc1)NC(=O)[C@H](CO)NC(=O)[C@H](Cc1c[nH]c2ccccc12)NC(=O)[C@H](Cc1cnc[nH]1)NC(=O)[C@@H]1CCC(=O)N1` [DES, deslorelin], the “average LH concentrations, DES versus control (gel only) group” value in the data set on luteinizing hormone (LH) [1] (200 μg daily vaginally in 5 mL gel for 17 days) is recorded as “no differences”. Also, the LH secretion result in the data set with luteinizing hormone (LH) [1] (between days 6 and 12 of daily vaginal dosing) is recorded as “slightly suppressed”. In the data set with luteinizing hormone (LH) [2] (200 μg vaginally in gel, 5 days after progesterone CIDR with or without estradiol implant, n=12), the “ewes that responded with a robust discharge of LH” value was “All ewes”. Also, the “time of peak LH” value in the data set with luteinizing hormone (LH) [2] (ewes treated only with progesterone) was found to be 120 min; with luteinizing hormone (LH) [2] (ewes treated with progesterone and estradiol), 240 min. In addition, the “lag time between vaginal administration and transport of sufficient amounts into the blood to cause LH release” value in the data set on luteinizing hormone (LH) [2] (in vivo) lay in the range of 70 to 80 min. Further, the “ewes in which the change in LH between 0 and 120 minutes was greatest on the first day of administration” value with luteinizing hormone (LH) [3] (200 μg daily vaginally in 5 mL gel, progesterone-primed ovariectomized ewes) is 3 of 6. Besides, the “ewes that transport GnRH” value in the data set with luteinizing hormone (LH) [3] (after four days of exposure to progesterone) is given as roughly 100%. For the same compound, in the data set on luteinizing hormone (LH) [3] (after only 24 hours of exposure to progesterone), the “ewes with significant transport” value is recorded as “Approximately 50%”. The “basal LH” value with luteinizing hormone (LH) [3] (progesterone-primed ewes, daily treatment, time 0 sample (FIG. 8)) was “significant decreases”. Further, in the data set with luteinizing hormone (LH) [3] (progesterone-primed ewes, first-treatment LH differential set to 100% (FIG. 7)), the “pituitary responsiveness with continued daily treatment” value is given as “significantly reduced”. Further, the “time over which the change in LH secretion continued to increase after initiation of treatment” value in the data set with luteinizing hormone (LH) [3] (the two remaining animals of six) fell in the range of 5 to 7 days. The “pituitary responsiveness once the maximum response was achieved” value in the data set on luteinizing hormone (LH) [3] (the two remaining animals of six (Ewe 9)) is “rapidly declined”. Moreover, the LH release entry in the data set with luteinizing hormone (LH) [4] (same gel preparation injected subcutaneously) is “obtained”. Besides, the “pituitary release of LH” value in the data set with luteinizing hormone (LH) [4] (vaginal administration in gel, systemic depot progesterone and progestogen ear implants) is listed as “poor”. The “ewes that displayed a robust release of LH” value in the data set on luteinizing hormone (LH) [5] (DES in gel at end of 18-day period, CIDR in place approximately 24 days) is “none”. For the same compound, in the data set on luteinizing hormone (LH) [5] (vaginal treatment five days after CIDR insertion), the “ewes with a robust release of LH” value is “Five of the six”.
For `NC(=O)CC[C@@H]1NC(=O)[C@H](Cc2ccccc2)NC(=O)[C@H](Cc2ccc(O)cc2)NC(=O)[C@@H](N)CSSC[C@@H](C(=O)N2CCC[C@H]2C(=O)N[C@@H](CCCN=C(N)N)C(=O)NCC(N)=O)NC(=O)[C@H](CC(N)=O)NC1=O` [vasopressin], the bioavailability – broadly, dose-corrected exposure relative to a reference, in per cent – in data set [6] (200 μg, vaginal administration in an aqueous buffer, leuprolide value based on biological response, read-out: bioavailability) was less than 0.1%. Also, in the data set on serum cortisol (intravenous injection, within the first hour following treatment), the systemic cortisol levels entry was “high systemic cortisol levels”. Further, the “changes in concentrations of cortisol” value in the data set with serum cortisol (vaginal administration in methocel solutions of 1.5 and 1.75%) is on record as “no detectable changes”. In addition, in the data set on serum cortisol (vaginal administration, aqueous solution (FIG. 1a)), the “change in systemic cortisol levels” value is on record as “no detectable change”.
On to `CC(C)C[C@H](NC(=O)[C@H](CCCCN)NC(=O)CNC(=O)[C@H](CC(C)C)NC(=O)[C@@H](NC(=O)[C@@H]1CSSC[C@H](N)C(=O)N[C@@H](CO)C(=O)N[C@@H](CC(N)=O)C(=O)N[C@@H](CC(C)C)C(=O)N[C@@H](CO)C(=O)N[C@@H]([C@@H](C)O)C(=O)N1)C(C)C)C(=O)N[C@@H](CO)C(=O)N[C@@H](CCC(N)=O)C(=O)N[C@@H](CCC(=O)O)C(=O)N[C@@H](CC(C)C)C(=O)N[C@@H](Cc1c[nH]cn1)C(=O)N[C@@H](CCCCN)C(=O)N[C@@H](CC(C)C)C(=O)N[C@@H](CCC(N)=O)C(=O)N[C@H](C(=O)N[C@@H](Cc1ccc(O)cc1)C(=O)N1CCC[C@H]1C(=O)N[C@@H](CCCNC(=N)N)C(=O)N[C@H](C(=O)N[C@@H](CC(N)=O)C(=O)N[C@H](C(=O)NCC(=O)N[C@@H](CO)C(=O)NCC(=O)N[C@H](C(=O)N1CCC[C@H]1C(N)=O)[C@@H](C)O)[C@@H](C)O)[C@@H](C)O)[C@@H](C)O` [salmon calcitonin], for which the bioavailability in data set [6] is less than 0.1%.
